According to the supplement of paper PMC10307832:

Compound: CC1(COc2ccc3c(c2)ncn3-c2ccc3cccc(N4CCC(N)CC4)c3n2)COC1 [Crenolanib] + Nc1ncn([C@H]2C[C@H](O)[C@@H](CO)O2)c(=O)n1 [Decitabine] (partner 2 µM)
Assay: relative viability (nuclei count vs DMSO), 5 days (fraction); higher = more cells survive
Conditions: first compound 1 µM
How it was run: (§1)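 Relative viability equals treated-well nuclei counts divided by vehicle-well nuclei counts. Counts came from 4× images of lung cancer cell lines grown in 1536-well plates for 5 days after pin-tool dosing on the day after seeding. Dosing used one drug alone or a fixed anchor-drug dose plus five library-drug doses (not always all listed) in √10 steps, and values are medians of duplicate plates.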

Cell Line	relative viability
NCI-H647	0.346
LK-2	0.309
NCI-H2126	0.586
NCI-H2342	0.694
SK-MES-1	0.359
HARA	0.569
COR-L23	0.413
COR-L 105	0.675
LC-2-ad	0.78
LU99A	0.975
ChaGo-K-1	0.556
NCI-H2170	0.454
NCI-H3122	0.478
HCC-78	0.652
A549	0.293
SW 900	0.407
NCI-H1648	0.59
NCI-H1395	0.669
NCI-H1793	0.475
NCI-H1944	0.458
ABC-1	1.15
NCI-H358	0.188

Compound: CC1(COc2ccc3c(c2)ncn3-c2ccc3cccc(N4CCC(N)CC4)c3n2)COC1 [Crenolanib] + CC(C)C[C@H](NC(=O)[C@H](Cc1ccccc1)NC(=O)c1cnccn1)B(O)O [Bortezomib] (partner 0.002 µM)
Assay: as above
Conditions: first compound 0.01 µM
How it was run: as §1

Cell Line	relative viability
NCI-H838	0.774
NCI-H1651	0.982
EBC-1	0.798
NCI-H1734	0.979
NCI-H2009	1.14
PC-14	0.908
LCLC-97TM1	0.454
NCI-H596	0.929
NCI-H2228	1.11
EMC-BAC-2	1.19
NCI-H2087	0.885
Calu-6	1.06
HCC-44	0.944
NCI-H1703	0.419
NCI-H647	1.03
NCI-H2126	1.09
HARA	1.17
COR-L23	0.983
COR-L 105	0.95
LC-2-ad	1.09
LU99A	1.23
ChaGo-K-1	1.07
NCI-H3122	1.08
IA-LM	0.806
HCC-78	0.309
NCI-H1299	1.04
CAL-12T	1.05
NCI-H1563	0.926
ABC-1	0.289

Same assay, conditions: first compound 0.03162 µM

Cell Line	relative viability
NCI-H838	0.796
NCI-H1651	0.894
EBC-1	0.581
NCI-H1734	1.09
NCI-H2009	1.02
EPLC-272H	0.766
PC-14	0.809
LCLC-97TM1	0.396
NCI-H596	1.07
NCI-H2228	0.922
EMC-BAC-2	1.03
NCI-H2087	0.74
Calu-6	0.97
HCC-44	0.876
NCI-H1703	0.231
NCI-H647	0.94
NCI-H2126	1.17
HARA	1.1
COR-L23	1.16
COR-L 105	0.863
LC-2-ad	0.959
LU99A	1.28
ChaGo-K-1	0.769
NCI-H3122	1.01
IA-LM	0.771
HCC-78	0.454
NCI-H1299	1.02
CAL-12T	0.667
NCI-H1563	0.901
ABC-1	0.353

Same assay, conditions: first compound 0.1 µM

Cell Line	relative viability
NCI-H838	0.984
NCI-H1651	0.904
EBC-1	0.573
NCI-H1734	0.919
NCI-H2009	1.01
EPLC-272H	0.747
PC-14	0.785
LCLC-97TM1	0.69
NCI-H596	0.998
NCI-H2228	0.776
EMC-BAC-2	1.01
NCI-H2087	0.917
Calu-6	1.03
HCC-44	0.856
NCI-H1703	0.218
NCI-H647	0.974
NCI-H2126	1.13
HARA	1.09
COR-L23	0.921
COR-L 105	0.646
LC-2-ad	0.98
LU99A	0.983
ChaGo-K-1	0.941
NCI-H3122	1.04
IA-LM	0.726
HCC-78	0.638
NCI-H1299	0.968
CAL-12T	1.23
NCI-H1563	0.897
ABC-1	0.331

Same assay, conditions: first compound 0.3162 µM

Cell Line	relative viability
NCI-H838	0.77
NCI-H1651	0.926
EBC-1	0.559
NCI-H1734	1.22
NCI-H2009	0.959
EPLC-272H	0.887
PC-14	0.995
LCLC-97TM1	0.896
NCI-H596	0.981
NCI-H2228	1.01
EMC-BAC-2	1.18
NCI-H2087	0.865
Calu-6	1.1
HCC-44	0.878
NCI-H1703	0.207
NCI-H647	1.16
NCI-H2126	1.15
HARA	1.13
COR-L23	1.13
COR-L 105	0.825
LC-2-ad	1.18
LU99A	1.34
ChaGo-K-1	0.969
NCI-H3122	1.05
IA-LM	0.949
HCC-78	0.499
NCI-H1299	1.04
CAL-12T	1.02
NCI-H1563	0.865
ABC-1	0.308

Same assay, conditions: first compound 1 µM

Cell Line	relative viability
NCI-H838	0.566
NCI-H1651	0.913
EBC-1	0.462
NCI-H1734	0.93
NCI-H2009	0.813
EPLC-272H	0.874
PC-14	0.948
LCLC-97TM1	0.699
NCI-H596	1.17
NCI-H2228	0.887
EMC-BAC-2	1.01
NCI-H2087	0.947
Calu-6	1.02
HCC-44	0.833
NCI-H1703	0.181
NCI-H647	0.888
NCI-H2126	1.1
HARA	1.16
COR-L23	1.03
COR-L 105	0.676
LC-2-ad	0.99
LU99A	1.05
ChaGo-K-1	0.971
NCI-H3122	1.16
IA-LM	0.978
HCC-78	0.438
NCI-H1299	1.03
CAL-12T	0.789
NCI-H1563	0.829
ABC-1	0.253

Compound: O=C1NC(=O)[C@@H](c2cn3c4c(cccc24)CCC3)[C@@H]1c1c[nH]c2ccccc12 [Tivantinib] + C[C@@H](Oc1cc(-c2cnn(C3CCNCC3)c2)cnc1N)c1c(Cl)ccc(F)c1Cl [Crizotinib] (partner 1 µM)
Assay: as above
Conditions: first compound 0.01 µM
How it was run: as §1

Cell Line	relative viability
NCI-H838	0.831
NCI-H1651	0.893
EBC-1	0.184
NCI-H1734	0.685
NCI-H2009	1.05
EPLC-272H	1.04
PC-14	0.912
LCLC-97TM1	0.451
NCI-H596	1.08
NCI-H2228	0.449
EMC-BAC-2	0.833
NCI-H2087	0.987
Calu-6	0.795
HCC-44	0.766
NCI-H1703	0.747
NCI-H647	1.18
LK-2	0.2
NCI-H2126	1.02

Cell Line	relative viability
SK-MES-1	0.984
HARA	1.07
COR-L23	0.677
COR-L 105	0.725
LC-2-ad	0.515
LU99A	0.516
ChaGo-K-1	1.1
NCI-H2170	1.31
NCI-H3122	0.271
IA-LM	0.962
HCC-78	0.341
A549	0.894
NCI-H1299	0.686
CAL-12T	0.711
NCI-H1563	0.851
NCI-H1944	1.01
ABC-1	1.39
NCI-H358	0.651

Same assay, conditions: first compound 0.03162 µM

Cell Line	relative viability
NCI-H838	0.924
NCI-H1651	0.828
EBC-1	0.189
NCI-H1734	0.73
NCI-H2009	1.07
EPLC-272H	0.963
PC-14	0.883
LCLC-97TM1	0.305
NCI-H596	0.92
NCI-H2228	0.481
EMC-BAC-2	0.728
NCI-H2087	0.913
Calu-6	0.799
HCC-44	0.915
NCI-H1703	1.01
NCI-H647	1.07
NCI-H2126	1.01
SK-MES-1	1.06

Cell Line	relative viability
HARA	1.01
COR-L23	0.662
COR-L 105	0.769
LC-2-ad	0.411
LU99A	0.593
ChaGo-K-1	1.2
NCI-H2170	1.13
NCI-H3122	0.275
IA-LM	0.857
HCC-78	0.321
A549	0.81
NCI-H1299	0.972
CAL-12T	0.774
NCI-H1563	0.893
NCI-H1944	1.01
ABC-1	1.14
NCI-H358	0.574

Same assay, conditions: first compound 0.1 µM

Cell Line	relative viability
NCI-H838	0.886
NCI-H1651	0.867
EBC-1	0.195
NCI-H1734	0.586
NCI-H2009	1.06
EPLC-272H	0.785
PC-14	0.934
LCLC-97TM1	0.38
NCI-H596	0.987
NCI-H2228	0.427
EMC-BAC-2	0.751
NCI-H2087	0.856
Calu-6	0.665
HCC-44	0.773
NCI-H1703	0.535
NCI-H647	1.03
LK-2	0.223
NCI-H2126	0.983

Cell Line	relative viability
SK-MES-1	0.89
HARA	1.01
COR-L23	0.611
COR-L 105	0.787
LC-2-ad	0.501
LU99A	0.576
ChaGo-K-1	1.11
NCI-H2170	1.04
NCI-H3122	0.252
IA-LM	0.677
HCC-78	0.317
A549	0.713
NCI-H1299	0.587
CAL-12T	0.714
NCI-H1563	0.822
NCI-H1944	1.03
ABC-1	0.91
NCI-H358	0.709

Same assay, conditions: first compound 0.3162 µM

Cell Line	relative viability
NCI-H838	0.963
NCI-H1651	0.762
EBC-1	0.198
NCI-H1734	0.569
NCI-H2009	0.98
EPLC-272H	0.82
PC-14	0.894
LCLC-97TM1	0.318
NCI-H596	0.905
NCI-H2228	0.337
EMC-BAC-2	0.657
NCI-H2087	1.01
Calu-6	0.826
HCC-44	0.787
NCI-H1703	0.255
NCI-H647	0.995
LK-2	0.218
NCI-H2126	1.03

Cell Line	relative viability
SK-MES-1	0.739
HARA	0.878
COR-L23	0.844
COR-L 105	0.435
LC-2-ad	0.411
LU99A	0.413
ChaGo-K-1	0.939
NCI-H3122	0.272
IA-LM	1.08
HCC-78	0.206
A549	0.638
NCI-H1299	0.93
CAL-12T	0.36
NCI-H1563	0.884
NCI-H1944	0.64
ABC-1	1.5
NCI-H358	0.301
